Where only a bound is given, the exact number is not on record here.

Chain of human activated kallikrein enzyme (P03952 391-638 limits assumed): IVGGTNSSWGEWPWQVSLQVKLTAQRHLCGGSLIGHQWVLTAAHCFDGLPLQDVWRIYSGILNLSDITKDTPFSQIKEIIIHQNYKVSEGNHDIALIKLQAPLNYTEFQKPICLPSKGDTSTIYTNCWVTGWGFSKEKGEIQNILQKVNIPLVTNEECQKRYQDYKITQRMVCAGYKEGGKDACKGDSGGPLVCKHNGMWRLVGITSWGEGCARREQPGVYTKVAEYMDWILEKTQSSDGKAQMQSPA
Chain of human activated kallikrein enzyme (P03952 20-390 partner limits assumed): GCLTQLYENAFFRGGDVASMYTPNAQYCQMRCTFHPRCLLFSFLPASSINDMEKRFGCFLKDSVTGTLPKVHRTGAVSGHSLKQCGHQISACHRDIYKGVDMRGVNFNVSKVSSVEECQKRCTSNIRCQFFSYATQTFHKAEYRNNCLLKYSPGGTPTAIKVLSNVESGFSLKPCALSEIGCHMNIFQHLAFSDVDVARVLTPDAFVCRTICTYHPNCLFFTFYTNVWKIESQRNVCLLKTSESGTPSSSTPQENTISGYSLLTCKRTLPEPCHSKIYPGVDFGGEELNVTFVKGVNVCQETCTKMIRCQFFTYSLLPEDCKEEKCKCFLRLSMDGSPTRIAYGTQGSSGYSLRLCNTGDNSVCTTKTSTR

The target of this test is human activated kallikrein enzyme (Homo sapiens, UniProt P03952). Description: Plasma kallikrein inhibition, fluorogenic PFR-AMC substrate, 500 pM activated kallikrein format. It is filed as biochemical. The note with it: 500 pM activated kallikrein, 300 uM PFR-AMC, 30 min preincubation, 10 min reaction; read-out: Primary Dose Response Assay: Average EC50. As for the experimental part:
Compounds were evaluated for inhibition of the human activated kallikrein enzyme in two formats of an assay employing a fluorogenic peptide substrate. In one assay format, the concentrations of reagents were as follows: 20 mM Tris pH 7.5, 1 mM EDTA, 150 mM sodium chloride, 0.1% PEG-400, 0.1% Triton X-100, 500 pM activated kallikrein enzyme, 300 uM Pro-Phe-Arg-7-amido-4-methylcoumarin (PFR-AMC) substrate. Prior to reaction initiation with substrate, enzyme and inhibitors were preincubated for 30 min at room temperature. After initiation with substrate, reactions were incubated for 10 min at room temperature and fluorescence emission at 460 nm from 380 nm excitation measured with a microplate reader. In another assay format, the concentrations of reagents were as follows: 20 mM Tris pH 7.5, 1 mM EDTA, 150 mM sodium chloride, 0.1% PEG-400, 0.1% Triton X-100, 5 pM activated kallikrein enzyme, 300 uM PFR-AMC substrate. Prior to reaction initiation with substrate, enzyme and inhibitors were preincubated for 30 min at room temperature. After initiation with substrate, reactions were incubated for 18 hr at room temperature and fluorescence emission at 460 nm from 380 nm excitation measured with a microplate reader.
Table 49 provides the results of the assay in the format with 500 pM activated kallikrein assay. For the compounds listed in Table 49, the EC50 values are reported according to the following ranges: A≤1.0 nM; 1.0 nM<B≤10 nM; 10 nM<C≤100 nM; 100 nM<D≤1000 nM; 1000 nM<E≤6000 nM; 6000 nM<F.
Table 51 provides comparative plasma kallikrein inhibition potency in the assay format with 500 pM activated kallikrein assay (described in detail in a preceding example). For the compounds listed in Table 51, the EC50 values are reported according to the following ranges: A≤1.0 nM; 1.0 nM<B≤10 nM; 10 nM<C≤100 nM; 100 nM<D≤1000 nM; 1000 nM<E≤6000 nM; 6000 nM<F.
Consider `CCOC(=O)CCOc1ccc(Cl)cc1[C@H]1C[C@@H]1C(=O)Nc1cc(NCc2cn3cc(C4CC4)ccc3n2)ncn1` (racemic) [Example 312, rac-ethyl 3-(4-chloro-2-((1S*,2S*)-2-((6-(((6-cyclopropylimidazo[1,2-a]pyridin-2-yl)methyl)amino)pyrimidin-4-yl)carbamoyl)cyclopropyl)phenoxy)propanoate], for which the EC50 lay in the range of 10 to 100 nM.

For `O=C(Nc1cc(NCc2cn3cc(C4CC4)ccc3n2)ncn1)[C@H]1C[C@@H]1c1cc(Cl)ccc1O` (racemic) [Example 313, rac-(1S*,2S*)-2-(5-chloro-2-hydroxyphenyl)-N-(6-(((6-cyclopropylimidazo[1,2-a]pyridin-2-yl)methyl)amino)pyrimidin-4-yl)cyclopropane-1-carboxamide], the EC50 fell in the range of 1 to 10 nM.

On to `COc1ccc(C#N)c([C@H]2C[C@@H]2C(=O)Nc2cc(NCc3cn4cc(C5CC5)ccc4n3)ncn2)c1F` (racemic) [Example 314, rac-(1S*,2S*)-2-(6-cyano-2-fluoro-3-methoxyphenyl)-N-(6-(((6-cyclopropylimidazo[1,2-a]pyridin-2-yl)methyl)amino)pyrimidin-4-yl)cyclopropane-1-carboxamide], for which the EC50 was 10 to 100 nM.

For `O=C(O)COc1ccc(Cl)cc1[C@H]1C[C@@H]1C(=O)Nc1cc(NCc2cn3cc(C4CC4)ccc3n2)ncn1` (racemic) [Example 315, rac-3-(4-chloro-2-((1S*,2S*)-2-((6-(((6-cyclopropylimidazo[1,2-a]pyridin-2-yl)methyl)amino)pyrimidin-4-yl)carbamoyl)cyclopropyl)phenoxy)acetic acid], the EC50 was 100 to 1000 nM.

On to `O=C(Nc1cc(NCc2cn3cc(C4CC4)ccc3n2)ncn1)[C@H]1C[C@@H]1c1cc(Cl)ccc1-n1cnnn1` (racemic) [Example 316, rac-(1S*,2S*)-2-(5-chloro-2-(1H-tetrazol-1-yl)phenyl)-N-(6-(((6-cyclopropylimidazo[1,2-a]pyridin-2-yl)methyl)amino)pyrimidin-4-yl)cyclopropane-1-carboxamide], for which the EC50 is 1 to 10 nM.

In the case of `CN1C(=O)CN(c2cc(C3CC3)cn3cc(CNc4cc(NC(=O)C5CC5(F)c5cccc(Cl)c5)ncn4)nc23)C1=O` (racemic) [Example 329, rac-2-(3-chlorophenyl)-N-(6-(((6-cyclopropyl-8-(3-methyl-2,4-dioxoimidazolidin-1-yl)imidazo[1,2-a]pyridin-2-yl)methyl)amino)pyrimidin-4-yl)-2-fluorocyclopropane-1-carboxamide], the EC50 was 1 to 10 nM.

As to `N#Cc1ccc(Cl)cc1[C@H]1C[C@@H]1C(=O)Nc1cc(NCc2cn3cc(C4CC4)cc(N4CCCC4=O)c3n2)ncn1` (racemic) [Example 334], the EC50 was below 1 nM.

`O=C(Nc1cncc(NCc2cn3cc(C4CC4)ccc3n2)n1)[C@H]1C[C@@H]1c1cccc(Cl)c1` (racemic) [Example 345, (rac-(1S*,2S*))-2-(3-chlorophenyl)-N-(6-(((6-cyclopropylimidazo[1,2-a]pyridin-2-yl)methyl)amino)pyrazin-2-yl)cyclopropane-1-carboxamide]: the EC50 is 10 to 100 nM.

Consider `O=C(Nc1nccc(NCc2cn3cc(C4CC4)ccc3n2)n1)[C@H]1C[C@@H]1c1cccc(Cl)c1` (racemic) [Example 346, (rac-(1S*,2S*))-2-(3-chlorophenyl)-N-(4-(((6-cyclopropylimidazo[1,2-a]pyridin-2-yl)methyl)amino)pyrimidin-2-yl)cyclopropane-1-carboxamide], for which the EC50 lay within 1 to 10 nM.

As for `O=C(Nc1ccnc(NCc2cn3cc(C4CC4)ccc3n2)n1)[C@H]1C[C@@H]1c1cccc(Cl)c1` (racemic) [Example 347, (rac-(1S*,2S*))-2-(3-chlorophenyl)-N-(2-(((6-cyclopropylimidazo[1,2-a]pyridin-2-yl)methyl)amino)pyrimidin-4-yl)cyclopropane-1-carboxamide], the EC50 lay in the range of 10 to 100 nM.

On to `O=C(Nc1cnnc(NCc2cn3cc(C4CC4)ccc3n2)c1)[C@H]1C[C@@H]1c1cccc(Cl)c1` (racemic) [Example 348, (rac-(1S*,2S*))-2-(3-chlorophenyl)-N-(6-(((6-cyclopropylimidazo[1,2-a]pyridin-2-yl)methyl)amino)pyridazin-4-yl)cyclopropane-1-carboxamide], for which the EC50 fell in the range of 1 to 10 nM.

With `O=C(Nc1cc(NCc2cn3cc(C4CC4)ccc3n2)ncn1)[C@H]1C[C@@H]1c1cccc(C2CC2)c1` (racemic) [Example 351, rac-(1S*,2S*)—N-(6-(((6-cyclopropylimidazo[1,2-a]pyridin-2-yl)methyl)amino)pyrimidin-4-yl)-2-(3-cyclopropylphenyl)cyclopropane-1-carboxamide], the EC50 was above 6000 nM.

As to `O=C(Nc1cc(NCc2cn3cc(C4CC4)cc(-n4cnnc4)c3n2)ncn1)[C@H]1C[C@@H]1c1cccc(Cl)c1` (racemic) [Example 405, rac-(1S*,2S*)-2-(3-chlorophenyl)-N-(6-(((6-cyclopropyl-8-(4H-1,2,4-triazol-4-yl)imidazo[1,2-a]pyridin-2-yl)methyl)amino)pyrimidin-4-yl)cyclopropane-1-carboxamide], the EC50 is below 1 nM.

Consider `CN1C(=O)[C@]2(C[C@H]2C(=O)Nc2cc(NCc3cn4cc(C5CC5)ccc4n3)ncn2)c2cc(Cl)ccc21` (racemic) [Example 413, rac-(1R*,2S*)-5′-chloro-N-(6-(((6-cyclopropylimidazo[1,2-a]pyridin-2-yl)methyl)amino)pyrimidin-4-yl)-1′-methyl-2′-oxospiro[cyclopropane-1,3′-indoline]-2-carboxamide], for which the EC50 was in the range of 100 to 1000 nM.

As for `O=C(Nc1cc(NCc2cn3cc(C4CC4)ccc3n2)ncn1)[C@@H]1[C@@H](c2cccc(Cl)c2)C1(F)F` (racemic) [Example 503, rac-(1S*,3S*)-3-(3-chlorophenyl)-N-(6-(((6-cyclopropylimidazo[1,2-a]pyridin-2-yl)methyl)amino)pyrimidin-4-yl)-2,2-difluorocyclopropane-1-carboxamide], the EC50 fell in the range of 1 to 10 nM.

For `O=C(Nc1cc(NCc2cn3cc(C4CC4)ccc3n2)ncn1)[C@H]1C[C@@H]1c1ncn2ccc(Cl)c(F)c12` (racemic) [Example 504, rac-(1S*,2S*)-2-(7-chloro-8-fluoroimidazo[1,5-a]pyridin-1-yl)-N-(6-(((6-cyclopropylimidazo[1,2-a]pyridin-2-yl)methyl)amino)pyrimidin-4-yl)cyclopropane-1-carboxamide], the EC50 was in the range of 10 to 100 nM.

In the case of `O=C(Nc1cc(NCc2cn3cc(C4CC4)ccc3n2)ncn1)[C@@H]1C[C@]12C(=O)Nc1ccc(Cl)cc12` (racemic) [Example 509, rac-(1R*,2S*)-5′-chloro-N-(6-(((6-cyclopropylimidazo[1,2-a]pyridin-2-yl)methyl)amino)pyrimidin-4-yl)-2′-oxospiro[cyclopropane-1,3′-indoline]-2-carboxamide], the EC50 was below 1 nM.

`O=C(Nc1cc(NCc2cn3cc(C4CC4)ccc3n2)ncn1)[C@@H]1C[C@@]12C(=O)Nc1ccc(Cl)cc12` (racemic) [Example 510, rac-(1R*,2R*)-5′-chloro-N-(6-(((6-cyclopropylimidazo[1,2-a]pyridin-2-yl)methyl)amino)pyrimidin-4-yl)-2′-oxospiro[cyclopropane-1,3′-indoline]-2-carboxamide]: the EC50 is 100 to 1000 nM.

In general, EC50 refers to the concentration giving half of the maximal effect.
